What all share (assay type): cell-based
For assay [1], the system named is MDA-MB-231 (breast cancer). The assay is described as follows: MTT antiproliferative assay, MDA-MB-231. Particulars: Homo sapiens, MDA-MB-231, 10 μM, 48 or 72 h, read-out: inhibition of cell growth, MDA-MB-231. The procedure, abridged:
(§1)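 Cells seeded at 2,000-5,000/well were treated with compound at 0.137 to 100 μM or a single 10 μM for 48 or 72 h at 37° C. MTT was added for a further 4 h, formazan dissolved in DMSO and absorbance read at 490 nm; viability was expressed relative to DMSO vehicle.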
On the technique in general: Formazan colour is commonly taken as a measure of viable cells.

Another assay deals with HeLa (ovarian cancer). In words: MTT antiproliferative assay, HeLa. Particulars: Homo sapiens, 48 or 72 h, read-out: inhibition of cell growth, HELA. The procedure, abridged: as §1
Another assay concerns SW620 (colon cancer). The assay is described as follows: MTT antiproliferative assay, SW620. Particulars: Homo sapiens, SW-620, SW620, 10 μM, 48 or 72 h, read-out: inhibition of cell growth, SW620. The procedure, abridged:
as §1

The test system of assay [2] is A549 (lung adenocarcinoma). The assay is described as follows: MTT antiproliferative assay, A549. Particulars: Homo sapiens, A549, 10 μM, 48 or 72 h, read-out: inhibition of cell growth, A549. The essentials:
as §1

Assay [3] deals with A431 (epidermoid carcinoma). In words: MTT antiproliferative assay, A431. Particulars: Homo sapiens, A-431, A431, 10 μM, 48 or 72 h, read-out: inhibition of cell growth, A431. The procedure, abridged: as §1
Assay [4] deals with A375 (malignant melanoma). The assay is described as follows: MTT antiproliferative assay, A375. The following applies: Homo sapiens, A-375, A375, 10 μM, 48 or 72 h, read-out: inhibition of cell growth, A375. The procedure, abridged:
as §1

A further assay has as its system HepG2 (liver cancer). In words: MTT antiproliferative assay, HepG2. Particulars: Homo sapiens, HepG2, 10 μM, 48 or 72 h, read-out: inhibition of cell growth, HepG2. The essentials: as §1

Each structure is given as a SMILES string. Bounds are passed on as bounds.

As a reminder, the inhibition is the percentage by which the read-out fell short of the control.

In the case of `COC(=O)[C@]1(C)CC[C@]2(C)CC[C@]3(C)C4=CC=C5C(=C/C(=C\C#N)C(=O)C5(C)O)[C@]4(C)CC[C@@]3(C)[C@@H]2C1` (stereo partly drawn) [Compound A37, methyl (2R,4aS,6aS,11E,12bR,14aS,14bR)-11-(cyanomethylidene)-9-hydroxy-2,4a,6a,9,12b,14a-hexamethyl-10-oxo-1,2,3,4,4a,5,6,6a,9,10,11,12b,13,14,14a,14b-hexadecahydropicene-2-carboxylate], the inhibition at 10 µM in assay [1] was no less than 80%; in the assay on HeLa (ovarian cancer), no less than 80%; in the assay on SW620 (colon cancer) it was 50 to 80%; in assay [2], less than 30%; in assay [3] it was no less than 80%; in assay [4], 30 to 50%. For the same compound, the inhibition at 10 µM in the assay on HepG2 (liver cancer) was 30 to 50%.
For `CC12OCCOC1(O)C(=O)C=C1C2=CC=C2[C@@]1(C)CC[C@@]1(C)[C@@H]3C[C@](C)(C(=O)O)CC[C@]3(C)CC[C@]21C` (stereo partly drawn) [Compound A43, (6bS,8aS,11R,12aR,12bS,14aR)-16a-hydroxy-4a,6b,8a,11,12b,14a-hexamethyl-16-oxo-2,3,4a,6b,7,8,8a,9,10,11,12,12a,12b,13,14,14a,16,16a-octadecahydropiceno[3,4-b][1,4]dioxine-11-carboxylic acid], the inhibition at 10 µM (in assay [1]; with HeLa (ovarian cancer); with SW620 (colon cancer); in assay [2]; in assay [3]; in assay [4]) was less than 30% in each case. The inhibition at 10 µM in the assay with HepG2 (liver cancer) is less than 30%.
In the case of `CO[C@]1(C)C(=O)C(=O)C=C2C1=CC=C1[C@@]2(C)CC[C@@]2(C)[C@@H]3C[C@](C)(C(=O)NCCO)CC[C@]3(C)CC[C@]12C` [Compound A44, (2R,4aS,6aS,9S,12bR,14aS,14bR)—N-(2-hydroxyethyl)-9-methoxy-2,4a,6a,9,12b,14a-hexamethyl-10,11-dioxo-1,2,3,4,4a,5,6,6a,9,10,11,12b,13,14,14a,14b-hexadecahydropicene-2-carboxamide], the inhibition at 10 µM in assay [1] was no less than 80%; with HeLa (ovarian cancer), no less than 80%; with SW620 (colon cancer), 50 to 80%; in assay [2] it was no less than 80%; in assay [3], no less than 80%; in assay [4] it was 30 to 50%. Also, the inhibition at 10 µM in the assay with HepG2 (liver cancer) was no less than 80%.
As to `CO[C@]1(C)C(=O)C(=O)C=C2C1=CC=C1[C@@]2(C)CC[C@@]2(C)[C@@H]3C[C@](C)(C(=O)NO)CC[C@]3(C)CC[C@]12C` [Compound A45, (2R,4aS,6aS,9S,12bR,14aS,14bR)—N-Hydroxy-9-methoxy-2,4a,6a,9,12b,14a-hexamethyl-10,11-dioxo-1,2,3,4,4a,5,6,6a,9,10,11,12b,13,14,14a,14b-hexadecahydropicene-2-carboxamide], the inhibition at 10 µM in assay [1] was no less than 80%; with HeLa (ovarian cancer), no less than 80%; in the assay on SW620 (colon cancer), 50 to 80%; in assay [2] it was no less than 80%; in assay [3] it was no less than 80%; in assay [4], 50 to 80%. For the same compound, the inhibition at 10 µM with HepG2 (liver cancer) was no less than 80%.
Take `CO[C@@]1(C)C2=CC=C3[C@@](C)(CC[C@@]4(C)[C@@H]5C[C@](C)(C(=O)O)CC[C@]5(C)CC[C@]34C)C2=CC2(O)OCCN=C21` (stereo partly drawn) [Compound A46, (2R,4aS,6aS,9S,14bR,16aS,16bR)-13a-hydroxy-9-methoxy-2,4a,6a,9,14b,16a-hexamethyl-2,3,4,4a,5,6,6a,9,11,12,13a,14b,15,16,16a,16b-hexadecahydro-1H-piceno[2,3-b][1,4]oxazine-2-carboxylic acid]: the inhibition at 10 µM in assay [1] was 50 to 80%; in the assay with HeLa (ovarian cancer) it was no less than 80%; with SW620 (colon cancer), 50 to 80%; in assay [2], 50 to 80%; in assay [3] it was no less than 80%; in assay [4] it was 30 to 50%. Moreover, in the assay with HepG2 (liver cancer), the inhibition at 10 µM was no less than 80%.
Turning to `CO[C@@]1(C)C2=CC=C3[C@@](C)(CC[C@@]4(C)[C@@H]5C[C@](C)(C(=O)NO)CC[C@]5(C)CC[C@]34C)C2=CC2(O)OCCN=C21` (stereo partly drawn) [Compound A47, (2R,4aS,6aS,9S,14bR,16aS,16bR)—N,13a-dihydroxy-9-methoxy-2,4a,6a,9,14b,16a-hexamethyl-2,3,4,4a,5,6,6a,9,11,12,13a,14b,15,16,16a,16b-hexadecahydro-1H-piceno[2,3-b][1,4]oxazine-2-carboxamide], the inhibition at 10 µM in assay [1] was no less than 80%; in the assay with HeLa (ovarian cancer), no less than 80%; in the assay on SW620 (colon cancer), 50 to 80%; in assay [2], no less than 80%; in assay [3], no less than 80%; in assay [4] it was 30 to 50%. The inhibition at 10 µM in the assay on HepG2 (liver cancer) was no less than 80%.
Take `CO[C@@]1(C)C2=CC=C3[C@@](C)(CC[C@@]4(C)[C@@H]5C[C@](C)(C(=O)O)CC[C@]5(C)CC[C@]34C)C2=CC(=NO)[C@@H]1O` [Compound A50, (2R,4aS,6aS,9S,10S,12bR,14aS,14bR)-10-hydroxy-11-(hydroxyimino)-9-methoxy-2,4a,6a,9,12b,14a-hexamethyl-1,2,3,4,4a,5,6,6a,9,10,11,12b,13,14,14a,14b-hexadecahydropicene-2-carboxylic acid]: the inhibition at 10 µM (in assay [1]; in the assay on HeLa (ovarian cancer); with SW620 (colon cancer); in assay [2]; in assay [3]; in assay [4]) was less than 30% in each case. In the assay with HepG2 (liver cancer), the inhibition at 10 µM is less than 30%.
Consider `CO[C@@]1(C)C2=CC=C3[C@@](C)(CC[C@@]4(C)[C@@H]5C[C@](C)(C(=O)O)CC[C@]5(C)CC[C@]34C)C2=CC(=O)C1=NNC(C)=O` [Compound A51, (2R,4aS,6aS,9S,12bR,14aS,14bR)-10-(acetamidoimino)-9-methoxy-2,4a,6a,9,12b,14a-hexamethyl-11-oxo-1,2,3,4,4a,5,6,6a,9,10,11,12b,13,14,14a,14b-hexadecahydropicene-2-carboxylic acid], for which the inhibition at 10 µM (in assay [1]; with HeLa (ovarian cancer); in the assay on SW620 (colon cancer); in assay [2]; in assay [3]; in assay [4]) was less than 30% each time. For the same compound, the inhibition at 10 µM in the assay on HepG2 (liver cancer) was less than 30%.
Take `CO[C@@]1(C)C2=CC=C3[C@@](C)(CC[C@@]4(C)[C@@H]5C[C@](C)(C(=O)O)CC[C@]5(C)CC[C@]34C)C2=CC(=O)C1=NNC(=O)c1ccncc1` [Compound A52, (2R,4aS,6aS,9S,12bR,14aS,14bR)-9-Methoxy-2,4a,6a,9,12b,14a-hexamethyl-11-oxo-10-{[(pyridin-4-yl)formamido]imino}-1,2,3,4,4a,5,6,6a,9,10,11,12b,13,14,14a,14b-hexadecahydropicene-2-carboxylic acid]: the inhibition at 10 µM (in assay [1]; in the assay on HeLa (ovarian cancer); in the assay with SW620 (colon cancer); in assay [2]; in assay [3]; in assay [4]) was less than 30% in each case. Besides, the inhibition at 10 µM in the assay on HepG2 (liver cancer) is less than 30%.
`CO[C@]1(C)C(=O)C2(C=C3C1=CC=C1[C@@]3(C)CC[C@@]3(C)[C@@H]4C[C@](C)(C(=O)O)CC[C@]4(C)CC[C@]13C)OCCO2` [Compound A54, (4S,6bS,8aS,11R,12aR,12bS,14aR)-4-methoxy-4,6b,8a,11,12b,14a-hexamethyl-3-oxo-4,6b,7,8,8a,9,10,11,12,12a,12b,13,14,14a-tetradecahydro-3H-spiro[picene-2,2′-[1,3]dioxolane]-11-carboxylic acid]: the inhibition at 10 µM (in assay [1]; in the assay with HeLa (ovarian cancer); in the assay on SW620 (colon cancer); in assay [2]; in assay [3]; in assay [4]) was less than 30% throughout. In addition, in the assay with HepG2 (liver cancer), the inhibition at 10 µM was less than 30%.
As to `CO[C@@]1(C)C2=CC=C3[C@@](C)(CC[C@@]4(C)[C@@H]5C[C@](C)(C(N)=O)CC[C@]5(C)CC[C@]34C)C2=CC(=O)[C@@H]1O` [Compound A55, (2R,4aS,6aS,9S,10R,12bR,14aS,14bR)-10-Hydroxy-9-methoxy-2,4a,6a,9,12b,14a-hexamethyl-11-oxo-1,2,3,4,4a,5,6,6a,9,10,11,12b,13,14,14a,14b-hexadecahydropicene-2-carboxamide], the inhibition at 10 µM in assay [1] is 50 to 80%; in the assay on HeLa (ovarian cancer) it was 50 to 80%; in the assay on SW620 (colon cancer), no less than 80%; in assay [2], 50 to 80%; in assay [3], no less than 80%; in assay [4] it was 30 to 50%. Besides, the inhibition at 10 µM in the assay with HepG2 (liver cancer) was no less than 80%.

The values above are taken from patent US12570687B2, “Triterpenoid compounds, pharmaceutical compositions thereof, and their use for treating a nuclear receptor subfamily 4 group a member 1-mediated disease” (NUCMITO PHARMACEUTICALS COMPANY LIMITED, priority 2019, dated 2026).
